Measurements taken from patent US8473035B2, “Medical imaging systems” (Beth Israel Deaconess Medical Center, priority 2003, dated 2013).

Experiments:
[1] = test system: blood flow in the heart; test: imaging of blood flow in the heart of a living laboratory rat after a thoracotomy; type: in vivo
Excerpt: (§1) More generally, IR-786 may be used for non-radioactive imaging of areas of ischemia in the living heart, or other visualization of the viability of other tissues.

[2] = test system: mitochondria and/or endoplasmic reticulum; test: partitioning of the dye into subcellular organelles; type: cell-based
Excerpt: as §1

[3] = in vivo early half-life of the dye; details: small molecule form
Excerpt: This permits multiple injections during a single procedure.

[4] = solubility of the dye in blood

| Structure (SMILES) | imaging of blood flow in the heart [1] | partitioning into mitochondria and/or endoplasmic reticulum [2] | in vivo early half-life [3] | solubility in blood [4] |
| --- | --- | --- | --- | --- |
| CN1C(=CC=C2CCCC(C=CC3=[N+](C)c4ccccc4C3(C)C)=C2Cl)C(C)(C)c2ccccc21.[O-][Cl+3]([O-])([O-])[O-] [IR-786] | successfully applied | partitions efficiently into mitochondria and/or endoplasmic reticulum in a concentration-dependent manner | – | – |
| CC1(C)C(/C=C/C=C/C=C/C=C2\N(CCCCS(=O)(=O)O)c3ccc4ccccc4c3C2(C)C)=[N+](CCCCS(=O)(=O)[O-])c2ccc3ccccc3c21 [Indocyanine green, indocyanine green] | – | – | shorter half-life | somewhat less soluble in blood |
